The values that follow are results of earlier work, collected in patent US4039549A, “Olefinic derivatives of amino acids” (Merrell Toraude et Compagnie, priority 1976, dated 1977).

The test system of series [1] is γ-aminobutyric acid transaminase. Conditions: literature.
Series [2] deals with brain levels of γ-aminobutyric acid. To be noted: reversible effect; literature.

Turning to `CCCC(CCC)C(=O)O` [n-dipropylacetate], the “inhibition of γ-aminobutyric acid transaminase (mode)” value in series [1] is given as “competitively inhibiting”. Moreover, in series [2], the “duration of effect (elevation of brain γ-aminobutyric acid levels)” value was “about 2 hours”.

Take `NCC#CC(=O)O` [4-aminotetrolic acid]: the “inhibition of γ-aminobutyric acid transaminase (mode)” value in series [1] is on record as “competitive reversible inhibitor”.
